Measured values taken from patent US5023264A, “Rapamycin oximes” (American Home Products Corporation, priority 1990, dated 1991).
Values after ≈ are worked out from the molar mass of the structure shown.

What was measured:
[1] = system: immunosuppressive activity; test: Standard pharmacological test procedures described supra (isomers of Example 1; overall immunosuppressive activity); design: species or system mouse; details: results not presented for the inactive isomer
Protocol: (§1) Immunosuppressive activity was evaluated in an in vitro standard pharmacological test procedure to measure lymphocyte proliferation (LAF) and in two in vivo standard pharmacological test procedures. The first in vivo procedure was a popliteal lymph node (PLN) test procedure which measured the effect of compounds of this invention on a mixed lymphocyte reaction and the second in vivo procedure evaluated the survival time of a pinch skin graft.
(§2) Briefly, cells from the thymus of normal BALB/c mice are cultured for 72 hours with PHA and IL-1 and pulsed with tritiated thymidine during the last six hours. […] Cells are harvested and incorporated; radioactivity is determined. Inhibition of lymphoproliferation is assessed in percent change in counts per minute from non-drug treated controls. The results are expressed by the following ratio: [formula]
A mixed lymphocyte reaction (MLR) occurs when lymphoid cells from genetically distinct animals are combined in tissue culture. Each stimulates the other to undergo blast transformation which results in increased DNA synthesis that can be quantified by the incorporation of tritiated thymidine. […] On Day 3 and Day 4, tritiated thymidine is given i.p., b.i.d. On Day 5, the hind popliteal lymph nodes are removed and dissolved, and radioactivity counted. […] Percent suppression is calculated using the non-drug treated animals as allogenic control. […]

[2] = system: Candida albicans 3669; test: Antifungal plate test, MIC, strain 3669; type: cell-based; details: plate disk test
Protocol: (§3) The following represents the typical procedure used. Compound to be tested was placed on sterile dried 1/4" plate disks, and allowed to dry. Agar plates were seeded with fungi and allowed to solidify. The impregnated disks were placed on the seeded Agar surface and incubated for the time required for the particular culture. Results are expressed in MIC (μg/ml) to inhibit growth.

[3] = system: Candida albicans ATCC 10231; test: Antifungal plate test, MIC, strain ATCC 10231; type: cell-based; details: plate disk test
Protocol: as §3

[4] = system: Candida albicans ATCC 38248; test: Antifungal plate test, MIC, strain ATCC 38248; type: cell-based; details: plate disk test
Protocol: as §3

[5] = system: Candida albicans ATCC 38247; test: Antifungal plate test, MIC, strain ATCC 38247; type: cell-based; details: plate disk test
Protocol: as §3

[6] = system: pinch skin graft rejection; test: Survival time of pinch skin graft; type: in vivo, mouse (male DBA/2 donors, male BALB/c recipients); details: for Skin Graft survival (days + SD): intraperitoneally, mean graft survival time ± S.D.
Protocol: as §1
The second in vivo test procedure is designed to determine the survival time of pinch skin graft from male DBA/2 donors transplanted to male BALB/c recipients. The method is adapted from Billingham R. E. and Medawar P. B., J. Exp. Biol. 28:385-(402), 1951. Briefly, a pinch skin graft from the donor is grafted on the dorsum of the recipient as a homograft, and an autograft is used as control in the same region. […] Untreated recipients serve as rejection control. The graft is monitored daily and observations are recorded until the graft becomes dry and forms a blackened scab. This is considered as the rejection day. The mean graft survival time (number of days±S.D.) of the drug treatment group is compared with the control group.
(§4) Transplanted pinch skin grafts are typically rejected within 6-7 days without the use of an immunosuppressive agent. […] (see, I. Roitt et al. Immunology, C. V. Moseby Co. 1989, p 12.8-12.11).

[7] = system: mixed lymphocyte reaction in popliteal lymph node (host vs. graft); test: Popliteal lymph node (PLN) test procedure, in vivo mixed lymphocyte reaction; design: species or system mouse (BALB/c donors, C3H recipients); details: for PLN (ratio): p.o. daily Day 0 to Day 4, ratio calculated as described (rapamycin 1.0)
Protocol: as §1
A mixed lymphocyte reaction (MLR) occurs when lymphoid cells from genetically distinct animals are combined in tissue culture. Each stimulates the other to undergo blast transformation which results in increased DNA synthesis that can be quantified by the incorporation of tritiated thymidine. Since stimulating a MLR is a function of disparity at Major Histocompatibility antigens, an in vivo popliteal lymph node (PLN) test procedure closely correlates to host vs. graft disease. Briefly, irradiated spleen cells from BALB/c donors are injected into the right hind foot pad of recipient C3H mice. The drug is given daily, p.o. from Day 0 to Day 4. On Day 3 and Day 4, tritiated thymidine is given i.p., b.i.d. On Day 5, the hind popliteal lymph nodes are removed and dissolved, and radioactivity counted. The corresponding left PLN serves as the control for the PLN from the injected hind foot. Percent suppression is calculated using the non-drug treated animals as allogenic control. […] Results are expressed by the following ratio: [formula]
(§5) *Calculation of ratios was described supra.
as §4

[8] = system: thymocyte (lymphocyte) proliferation; test: Comitogen-induced thymocyte proliferation procedure (LAF); type: cell-based; details: in vitro, thymus cells of BALB/c mice, PHA and IL-1, 72 hours; ratio calculated as described (rapamycin 1.0)
Protocol: as §1, §2, §5, §4

[9] = system: Candida albicans ATCC 38246; test: Antifungal plate test, MIC, strain ATCC 38246; type: cell-based; details: plate disk test
Protocol: as §3

[10] = system: transplant rejection; details: cited from earlier work
[11] = system: experimental allergic encephalomyelitis, a model for multiple sclerosis; details: cited from earlier work
[12] = system: Candida albicans; details: particularly against Candida albicans, in vitro and in vivo; cited from earlier work
[13] = system: IGE-like antibodies; details: in vivo; cited from earlier work

| Molecule | MIC [2] | MIC [3] | MIC [4] | MIC [5] | Skin Graft survival (days + SD) [6] | LAF (ratio) [8] | MIC [9] | Immunosuppressive effect / inhibition of transplant rejection [10] | further results |
| --- | --- | --- | --- | --- | --- | --- | --- | --- | --- |
| CO[C@H]1C[C@@H]2CC[C@@H](C)[C@@](O)(O2)C(=O)C(=O)N2CCCC[C@H]2C(=O)O[C@H]([C@H](C)C[C@@H]2CC[C@@H](O)[C@H](OC)C2)CC(=O)[C@H](C)/C=C(\C)[C@@H](O)[C@@H](OC)C(=NO)[C@H](C)C[C@H](C)/C=C/C=C/C=C/1C (single isomer, unassigned) [isomerically pure mono-oxime, Rapamycin-27-oxime] | – | – | – | – | – | – | – | – | Biological activity of the isomers of Example 1 [1]: biologically inactive |
| CO[C@H]1C[C@@H]2CC[C@@H](C)[C@@](O)(O2)C(=O)C(=O)N2CCCC[C@H]2C(=O)O[C@H]([C@H](C)C[C@@H]2CC[C@@H](O)[C@H](OC)C2)CC(=O)[C@H](C)/C=C(\C)[C@@H](O)[C@@H](OC)C(=NOCc2ccccc2)[C@H](C)C[C@H](C)/C=C/C=C/C=C/1C [Example 2, Rapamycin-O-benzyl-27-oxime] | > 0.4 µg/mL | > 0.4 µg/mL | > 0.4 µg/mL | > 0.4 µg/mL | 9.3 ± 1.4 days | 0.87 | > 0.4 µg/mL | – | PLN (ratio) [7]: 1.39 |
| CON=C1[C@H](C)C[C@H](C)/C=C/C=C/C=C(\C)[C@@H](OC)C[C@@H]2CC[C@@H](C)[C@@](O)(O2)C(=O)C(=O)N2CCCC[C@H]2C(=O)O[C@H]([C@H](C)C[C@@H]2CC[C@@H](O)[C@H](OC)C2)CC(=O)[C@H](C)/C=C(\C)[C@@H](O)[C@H]1OC [Example 3, Rapamycin-O-methyl-27-oxime] | 0.2 µg/mL (≈ 0.212 µM) | 0.2 µg/mL (≈ 0.212 µM) | 0.05 µg/mL (≈ 0.053 µM) | 0.2 µg/mL (≈ 0.212 µM) | 9.5 ± 1.4 days | 0.007 | 0.05 µg/mL (≈ 0.053 µM) | – | – |
| C=CC[C@@H]1/C=C(\C)C[C@H](C)C[C@H](OC)[C@H]2O[C@@](O)(C(=O)C(=O)N3CCCC[C@H]3C(=O)O[C@H](/C(C)=C/[C@@H]3CC[C@@H](O)[C@H](OC)C3)[C@H](C)[C@@H](O)CC1=O)[C@H](C)C[C@@H]2OC [FK-506] | – | – | – | – | – | – | – | effective as immunosuppressive agents | – |
| CO[C@H]1C[C@@H]2CC[C@@H](C)[C@@](O)(O2)C(=O)C(=O)N2CCCC[C@H]2C(=O)O[C@H]([C@H](C)C[C@@H]2CC[C@@H](O)[C@H](OC)C2)CC(=O)[C@H](C)/C=C(\C)[C@@H](O)[C@@H](OC)C(=O)[C@H](C)C[C@H](C)/C=C/C=C/C=C/1C [Rapamycin] | – | – | – | – | 12.0 ± 1.7 days | – | – | effective in inhibiting transplant rejection | Effect in experimental allergic encephalomyelitis model [11]: effective in the experimental allergic encephalomyelitis model; Antifungal activity [12]: antifungal activity, particularly against Candida albicans, both in vitro and in vivo; Inhibition of formation of IGE-like antibodies [13]: effectively inhibited the formation of IGE-like antibodies |
| Rapamycin-27-oxime [Example 1] | 0.2 µg/mL | 0.05 µg/mL | 0.1 µg/mL | 0.05 µg/mL | 10.0 ± 1.6 days | 0.25 | 0.2 µg/mL | – | Biological activity of the isomers of Example 1 [1]: active in the assays described supra; Skin graft survival time (in words) ([6]; compared with grafts without immunosuppressive agent, rejected within 6-7 days): increased survival time observed in the skin graft test procedure; T cell proliferation in the PLN test procedure (in words) ([7]; from negative PLN ratio): may cause T cell proliferation in the PLN test procedure; PLN (ratio) [7]: -1.40 |
| cyclosporin A | – | – | – | – | – | – | – | effective as immunosuppressive agents | – |
